Legend:
[1] = molecular target: NET (Rattus norvegicus, UniProt Q63380); test: NET binding assay, [3H]nisoxetine, rat frontal cortex membranes
[2] = molecular target: Dopamine D2 receptor Gi1 activation (Homo sapiens, UniProt P14416); type: cell-based
[3] = system: mice; test: Locomotor activity studies in mice; details: for locomotion: i.p.
[4] = introductory statement, no reference given; cited from earlier work
[5] = Mouse microsomal stability assay; type: in vitro ADME; details: mouse liver microsomes
[6] = molecular target: DAT (Rattus norvegicus, UniProt P23977); test: DAT binding assay, [3H]WIN 35,428, rat striatal membranes; details: 8c vs 10a, 9c vs 11a
DAT, sequence (P23977 whole entry): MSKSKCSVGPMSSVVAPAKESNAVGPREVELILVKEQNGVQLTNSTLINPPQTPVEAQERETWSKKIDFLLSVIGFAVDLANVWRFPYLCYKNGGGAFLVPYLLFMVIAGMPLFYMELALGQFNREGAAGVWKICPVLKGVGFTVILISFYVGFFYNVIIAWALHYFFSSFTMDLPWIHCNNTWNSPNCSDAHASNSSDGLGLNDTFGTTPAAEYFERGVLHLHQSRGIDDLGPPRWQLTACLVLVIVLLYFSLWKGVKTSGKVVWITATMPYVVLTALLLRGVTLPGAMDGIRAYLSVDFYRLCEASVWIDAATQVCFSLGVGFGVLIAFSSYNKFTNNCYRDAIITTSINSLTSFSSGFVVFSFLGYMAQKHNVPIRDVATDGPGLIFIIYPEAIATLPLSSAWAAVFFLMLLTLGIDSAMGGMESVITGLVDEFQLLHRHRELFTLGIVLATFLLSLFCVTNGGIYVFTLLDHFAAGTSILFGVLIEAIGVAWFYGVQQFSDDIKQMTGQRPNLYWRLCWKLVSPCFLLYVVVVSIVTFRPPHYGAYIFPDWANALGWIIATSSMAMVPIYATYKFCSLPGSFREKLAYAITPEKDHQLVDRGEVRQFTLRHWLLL

Dopamine D2 receptor Gi1 activation, sequence (P14416 whole entry): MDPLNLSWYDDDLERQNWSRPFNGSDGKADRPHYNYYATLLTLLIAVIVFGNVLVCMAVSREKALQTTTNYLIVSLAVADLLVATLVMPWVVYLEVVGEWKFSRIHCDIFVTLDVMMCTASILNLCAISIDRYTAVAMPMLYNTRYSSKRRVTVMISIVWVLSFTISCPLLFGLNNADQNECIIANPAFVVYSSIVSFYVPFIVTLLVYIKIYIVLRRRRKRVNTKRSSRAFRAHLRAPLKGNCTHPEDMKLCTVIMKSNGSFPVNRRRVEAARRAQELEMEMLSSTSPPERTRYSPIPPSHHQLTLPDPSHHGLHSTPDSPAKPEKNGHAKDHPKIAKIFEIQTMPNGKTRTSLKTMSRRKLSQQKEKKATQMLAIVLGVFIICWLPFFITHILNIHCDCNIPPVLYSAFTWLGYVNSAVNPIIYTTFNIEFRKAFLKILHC
NET, sequence (Q63380 1-617): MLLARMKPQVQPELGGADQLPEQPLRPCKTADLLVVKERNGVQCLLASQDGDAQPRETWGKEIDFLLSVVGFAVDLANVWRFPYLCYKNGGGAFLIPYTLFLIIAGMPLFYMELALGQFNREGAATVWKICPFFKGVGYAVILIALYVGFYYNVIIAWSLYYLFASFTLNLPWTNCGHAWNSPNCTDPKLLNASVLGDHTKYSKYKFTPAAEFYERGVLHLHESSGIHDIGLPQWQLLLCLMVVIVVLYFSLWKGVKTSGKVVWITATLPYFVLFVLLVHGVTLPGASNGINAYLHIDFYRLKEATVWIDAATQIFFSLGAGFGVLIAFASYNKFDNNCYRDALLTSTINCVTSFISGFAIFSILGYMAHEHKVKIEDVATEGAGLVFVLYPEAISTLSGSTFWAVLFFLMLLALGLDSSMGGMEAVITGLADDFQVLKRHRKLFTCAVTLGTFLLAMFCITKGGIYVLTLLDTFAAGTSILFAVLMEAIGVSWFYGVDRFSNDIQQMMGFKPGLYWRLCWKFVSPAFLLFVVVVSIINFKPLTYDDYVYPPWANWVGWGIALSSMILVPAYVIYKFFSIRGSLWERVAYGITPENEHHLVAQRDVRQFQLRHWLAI

SMILES | Ki [1] | time in which metabolized [5] | other results
CC(O)CN1CCN(CC[S+]([O-])C(c2cccc(Cl)c2)c2cccc(Cl)c2)CC1 (centres unmarked) [Compound 9i, 1-(4-(2-((Bis(3-chlorophenyl)methyl)sulfinyl)ethyl)piperazin-1-yl)propan-2-ol] | > 50 µM | – | –
CC(O)CN1CCN(C(=O)C[S+]([O-])C(c2cccc(Cl)c2)c2cccc(Cl)c2)CC1 (centres unmarked) [Compound 14g, 2-((Bis(3-chlorophenyl)methyl)sulfinyl)-1-(4-(2-hydroxypropyl)piperazin-1-yl)ethan-1-one] | > 50 µM | – | –
NC(=O)C[S@@+]([O-])C(c1ccccc1)c1ccccc1 [(R)-2, reference compound] | – | – | IC50 [2]: > 10000 nM; locomotion ([3]; mice, 10 mg/kg): very mild increase; locomotion ([3]; mice, 30 mg/kg): significant dose-dependent increase in locomotion
NC(=O)C[S+]([O-])C(c1ccccc1)c1ccccc1 (centres unmarked) [Compound 2, 2-[(diphenylmethyl)sulfinyl]acetamide] | – | – | water solubility [4]: essentially insoluble in water
[O-][S+](CCN1CCN(CC(O)Cc2ccccc2)CC1)C(c1ccccc1)c1ccccc1 (centres unmarked) [Compound 11a, 1-(4-(2-(Benzhydrylsulfinyl)ethyl)piperazin-1-yl)-3-phenylpropan-2-ol] | – | < 30 min | –
CC(O)CN1CCN(CC[S+]([O-])C(c2ccccc2)c2ccccc2)CC1 (centres unmarked) [Compound 9c, 1-(4-(2-(Benzhydrylsulfinyl)ethyl)piperazin-1-yl)propan-2-ol] | – | – | fold decrease in DAT affinity on removal of the phenyl group [6]: 187 fold
[O-][S+](CCN1CCN(Cc2ccc(C(F)(F)F)cc2)CC1)C(c1ccc(F)cc1)c1ccc(F)cc1 (centres unmarked) [Compound 9g, 1-(2-((Bis(4-fluorophenyl)methyl)sulfinyl)ethyl)-4-(4-(trifluoromethyl)benzyl)piperazine] | > 50 µM | < 30 min | –
Fc1ccc(C(SCCNCCCc2ccccc2)c2ccc(F)cc2)cc1 [Compound 4, N-(2-((bis(4-fluorophenyl)methyl)thio)ethyl)-3-phenylpropan-1-amine] | – | – | IC50 [2]: > 10000 nM
CC(O)CN1CCN(CCSC(c2ccccc2)c2ccccc2)CC1 (centres unmarked) [Compound 8c, 1-(4-(2-(Benzhydrylthio)ethyl)piperazin-1-yl)propan-2-ol] | – | – | fold decrease in DAT affinity on removal of the phenyl group [6]: 25 fold
[O-][S+](CCN1CCN(Cc2ccc(F)cc2)CC1)C(c1ccc(F)cc1)c1ccc(F)cc1 (centres unmarked) [Compound 9f, 1-(2-((Bis(4-fluorophenyl)methyl)sulfinyl)ethyl)-4-(4-fluorobenzyl)piperazine] | > 50 µM | < 30 min | –
CC(O)CN1CCN(C(=O)CSC(c2ccc(F)cc2)c2ccc(F)cc2)CC1 (centres unmarked) [Compound 13c, 2-((Bis(4-fluorophenyl)methyl)thio)-1-(4-(2-hydroxypropyl)piperazin-1-yl)ethan-1-one] | – | < 30 min | –
CCCCN1C2CCC1CC(OC(c1ccc(F)cc1)c1ccc(F)cc1)C2 (centres unmarked) [Compound 3, 3-(bis(4-fluorophenyl)methoxy)-8-butyl-8-azabicyclo[3.2.1]octane] | – | – | IC50 [2]: 2000 ± 730 nM
O=C(C[S+]([O-])C(c1ccc(F)cc1)c1ccc(F)cc1)N1CCN(CCCc2ccccc2)CC1 (centres unmarked) [Compound 14b, 2-((Bis(4-fluorophenyl)methyl)sulfinyl)-1-(4-(3-phenylpropyl)piperazin-1-yl)ethan-1-one] | – | < 30 min | –
CCc1cc(Cl)c(OC)c(C(=O)NC[C@@H]2CCCN2CC)c1O [eticlopride] | – | – | IC50 [2]: 2.1 ± 0.8 nM
[O-][S+](CCN1CCN(CC(O)Cc2ccccc2)CC1)C(c1ccc(F)cc1)c1ccc(F)cc1 (centres unmarked) [Compound 11b, 1-(4-(2-((Bis(4-fluorophenyl)methyl)sulfinyl)ethyl)piperazin-1-yl)-3-phenylpropan-2-ol] | – | – | locomotor stimulation compared to cocaine ([3]; mice): only moderate locomotor stimulation in mice and was substantially less efficacious than cocaine; locomotion ([3]; mice, 30 mg/kg): significant dose-dependent increase in locomotion; locomotor stimulation compared to cocaine ([3]; mice, listed as 11d): far less efficacious than cocaine
[O-][S+](CCN1CCN(Cc2ccc(Cl)cc2)CC1)C(c1ccc(F)cc1)c1ccc(F)cc1 (centres unmarked) [Compound 9h, 1-(2-((Bis(4-fluorophenyl)methyl)sulfinyl)ethyl)-4-(4-chlorobenzyl)piperazine] | > 50 µM | < 30 min | –
CC(O)CN1CCN(C(=O)CSC(c2cccc(Cl)c2)c2cccc(Cl)c2)CC1 (centres unmarked) [Compound 13g, 2-((Bis(3-chlorophenyl)methyl)thio)-1-(4-(2-hydroxypropyl)piperazin-1-yl)ethan-1-one] | > 50 µM | – | –
COC(=O)[C@H]1[C@@H](OC(=O)c2ccccc2)C[C@@H]2CC[C@H]1N2C [cocaine, reference compound] | – | – | locomotion ([3]; mice, 3, 10 mg/kg): robust dose-dependent increase in locomotion
O=C(C[S+]([O-])C(c1ccc(F)cc1)c1ccc(F)cc1)N1CCN(Cc2ccc(F)cc2)CC1 (centres unmarked) [Compound 14e, 2-((Bis(4-fluorophenyl)methyl)sulfinyl)-1-(4-(4-fluorobenzyl)piperazin-1-yl)ethan-1-one] | – | < 30 min | –

— PMC5161041 (Journal of medicinal chemistry, 2016)
